Measured values taken from ChEMBL document CHEMBL3124792, “Discovery and preclinical characterization of the cyclopropylindolobenzazepine BMS-791325, a potent allosteric inhibitor of the hepatitis C virus NS5B polymerase” (J Med Chem, 2014).
≈ marks a conversion by molar mass, not a printed value.

Columns and labels:
[1] = Drug uptake in rat liver at 5 mg/kg, iv after 4 hrs; format: ADME, organism-based; parameters: dose 5 mg/kg, route intravenous; details: read-out: Drug uptake
[2] = Plasma concentration in rat at 5 mg/kg, iv after 4 hrs; format: ADME, organism-based; parameters: dose 5 mg/kg, route intravenous
[3] = Cytotoxicity against human HuH7 cells by Alamar blue assay; format: cell-based; details: Huh-7 cells
[4] = AUC (0 to 4 hrs) in rat at 5 mg/kg, iv; format: ADME, organism-based; parameters: time < 4 hr, dose 5 mg/kg, route intravenous; details: plasma
[5] = Drug uptake in rat liver at 10 mg/kg, po after 4 hrs; format: ADME, organism-based; parameters: dose 10 mg/kg, route oral; details: read-out: Drug uptake
[6] = Permeability of the compound at pH 7.4 by PAMPA; format: physicochemical; details: read-out: permeability
Hepatitis C virus [7] = test: Antiviral activity against Hepatitis C virus H77c genotype 1a infected in human HuH7 cells after 3 days by FRET assay; format: functional, organism-based, Hepacivirus hominis; details: genotype 1a H77, Huh-7, 72 h
[8] = Plasma concentration in rat at 10 mg/kg, po after 4 hrs; format: ADME, organism-based; parameters: dose 10 mg/kg, route oral
Liver microsome [9] = details: rat, microsomes
[10] = Solubility of the compound in amorphous form in phosphate buffer at pH 6.5; format: physicochemical
Liver microsome [11] = details: human, microsomes
[12] = target: T1, Nuclear receptor subfamily 1 group I member 2 (Homo sapiens, UniProt O75469); test: Transactivation of human PXR expressed in human HepG2 cells by luciferase reporter gene assay; format: cell-based
T1 sequence (O75469 whole entry): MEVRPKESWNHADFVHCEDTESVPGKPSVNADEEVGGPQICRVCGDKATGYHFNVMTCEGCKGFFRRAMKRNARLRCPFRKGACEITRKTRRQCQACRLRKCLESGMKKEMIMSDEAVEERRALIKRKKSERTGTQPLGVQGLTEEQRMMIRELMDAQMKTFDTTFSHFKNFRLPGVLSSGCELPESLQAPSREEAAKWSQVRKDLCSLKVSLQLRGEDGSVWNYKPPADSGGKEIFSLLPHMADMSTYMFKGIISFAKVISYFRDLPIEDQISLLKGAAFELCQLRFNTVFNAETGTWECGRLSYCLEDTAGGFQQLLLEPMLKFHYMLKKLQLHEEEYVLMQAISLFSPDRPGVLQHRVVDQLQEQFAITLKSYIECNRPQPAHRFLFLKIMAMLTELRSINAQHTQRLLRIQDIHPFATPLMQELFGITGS

[13] = Plasma clearance in rat at 5 mg/kg, iv; format: ADME, organism-based; parameters: dose 5 mg/kg, route intravenous
Hepatitis C virus [14] = test: Antiviral activity against Hepatitis C virus Con1 genotype 1b infected in human HuH7 cells after 3 days by FRET assay; format: functional, organism-based, Hepacivirus hominis; details: isolate Con1, Huh-7, 72 h
Hepatitis C virus [15] = test: Antiviral activity against Hepatitis C virus Con1 genotype 1b infected in human HuH7 cells after 3 days by FRET assay in presence of 40% human serum; format: functional, organism-based, Hepacivirus hominis; details: isolate Con1, Huh-7, 72 h
[16] = AUC (0 to 4 hrs) in rat at 10 mg/kg, po; format: ADME, organism-based; parameters: time < 4 hr, dose 10 mg/kg, route oral; details: plasma
PXR (NR1I2) = target: T2, PXR (NR1I2) (Homo sapiens, UniProt O75469); test: Transactivation of human PXR expressed in human HepG2 cells by luciferase reporter gene assay relative to control; format: cell-based; details: HepG2 cells expressing human PXR, read-out: %max
T2 sequence (O75469 whole entry): T1 sequence (O75469 whole entry)

Hepatitis C virus [17] = test: Ratio of EC50 for Hepatitis C virus Con1 genotype 1b in presence of 40% human serum to EC50 for Hepatitis C virus Con1 genotype 1b; format: functional, Hepacivirus hominis, isolate Con1
Cytochrome P450 2C9 = Cytochrome P450 2C9 (Homo sapiens, UniProt P11712); test: Inhibition of CYP2C9 in human liver microsomes after 30 mins in presence of NADPH; format: ADME
Cytochrome P450 2C19 = Cytochrome P450 2C19 (Homo sapiens, UniProt P33261); test: Inhibition of CYP2C19 in human liver microsomes after 30 mins in presence of NADPH; format: ADME
Cytochrome P450 1A2 = target: T3, Cytochrome P450 1A2 (Homo sapiens, UniProt P05177); test: Inhibition of CYP1A2 in human liver microsomes after 30 mins in presence of NADPH; format: ADME
T3 sequence (P05177 whole entry): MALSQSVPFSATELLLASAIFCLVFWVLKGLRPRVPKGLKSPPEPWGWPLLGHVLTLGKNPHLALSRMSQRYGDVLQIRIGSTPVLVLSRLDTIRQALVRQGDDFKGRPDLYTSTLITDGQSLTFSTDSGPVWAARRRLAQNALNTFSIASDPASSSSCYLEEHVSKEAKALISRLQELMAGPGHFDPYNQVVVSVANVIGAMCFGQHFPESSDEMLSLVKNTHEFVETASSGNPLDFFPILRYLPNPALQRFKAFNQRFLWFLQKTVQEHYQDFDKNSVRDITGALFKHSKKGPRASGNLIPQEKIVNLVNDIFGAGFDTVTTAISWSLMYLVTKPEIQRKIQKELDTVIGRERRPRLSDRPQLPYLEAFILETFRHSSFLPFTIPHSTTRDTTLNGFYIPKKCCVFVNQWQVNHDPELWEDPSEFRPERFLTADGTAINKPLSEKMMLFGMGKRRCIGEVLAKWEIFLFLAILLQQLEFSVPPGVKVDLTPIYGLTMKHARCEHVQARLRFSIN

[18] = target: Voltage-gated inwardly rectifying potassium channel KCNH2 (Homo sapiens, UniProt Q12809); test: Inhibition of human ERG by fluorescence-based thallium flux assay
HepG2 = test: Cytotoxicity against human HepG2 cells; format: cell-based
Cytochrome P450 2D6 = Cytochrome P450 2D6 (Homo sapiens, UniProt P10635); test: Inhibition of CYP2D6 in human liver microsomes after 30 mins in presence of NADPH; format: ADME
Cytochrome P450 3A4 = Cytochrome P450 3A4 (Homo sapiens, UniProt P08684); test: Inhibition of CYP3A4 in human liver microsomes using benzyloxyresorufin as substrate after 30 mins in presence of NADPH; format: ADME
[19] = target: RNA-directed RNA polymerase (Hepacivirus hominis, UniProt O39930, P495A); test: Inhibition of HCV Con1 genotype 1b NS5B RNA dependent RNA polymerase P495A mutant-mediated incorporation of radiolabeled nucleotides by scintillation proximity assay; parameters: species or system Hepatitis C virus (isolate Con1)
[20] = Inhibition of HCV Con1 genotype 1b recombinant wild-type NS5B polymerase-mediated incorporation of radiolabeled nucleotides by scintillation proximity assay; parameters: species or system Hepatitis C virus (isolate Con1)
[21] = target: Sodium channel protein type 5 subunit alpha (Homo sapiens, UniProt Q14524); test: Inhibition of human NaV1.5 expressed in HEK293 cells by fluorescence-based thallium flux assay; format: cell-based

Cytochrome P450 3A4, sequence (P08684 whole entry): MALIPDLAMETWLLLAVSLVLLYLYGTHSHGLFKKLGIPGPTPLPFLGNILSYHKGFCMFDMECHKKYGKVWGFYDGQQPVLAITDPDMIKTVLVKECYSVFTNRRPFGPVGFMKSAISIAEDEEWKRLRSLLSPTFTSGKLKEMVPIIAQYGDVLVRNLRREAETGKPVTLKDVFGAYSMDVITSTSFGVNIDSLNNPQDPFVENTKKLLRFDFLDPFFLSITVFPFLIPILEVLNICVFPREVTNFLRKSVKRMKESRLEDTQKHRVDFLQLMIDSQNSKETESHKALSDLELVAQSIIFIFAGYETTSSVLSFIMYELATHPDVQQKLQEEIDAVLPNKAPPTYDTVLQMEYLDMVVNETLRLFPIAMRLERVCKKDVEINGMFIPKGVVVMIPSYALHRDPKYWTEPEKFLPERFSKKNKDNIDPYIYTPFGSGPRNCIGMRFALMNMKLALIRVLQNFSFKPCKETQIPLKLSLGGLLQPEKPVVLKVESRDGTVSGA
Cytochrome P450 2C19, sequence (P33261 whole entry): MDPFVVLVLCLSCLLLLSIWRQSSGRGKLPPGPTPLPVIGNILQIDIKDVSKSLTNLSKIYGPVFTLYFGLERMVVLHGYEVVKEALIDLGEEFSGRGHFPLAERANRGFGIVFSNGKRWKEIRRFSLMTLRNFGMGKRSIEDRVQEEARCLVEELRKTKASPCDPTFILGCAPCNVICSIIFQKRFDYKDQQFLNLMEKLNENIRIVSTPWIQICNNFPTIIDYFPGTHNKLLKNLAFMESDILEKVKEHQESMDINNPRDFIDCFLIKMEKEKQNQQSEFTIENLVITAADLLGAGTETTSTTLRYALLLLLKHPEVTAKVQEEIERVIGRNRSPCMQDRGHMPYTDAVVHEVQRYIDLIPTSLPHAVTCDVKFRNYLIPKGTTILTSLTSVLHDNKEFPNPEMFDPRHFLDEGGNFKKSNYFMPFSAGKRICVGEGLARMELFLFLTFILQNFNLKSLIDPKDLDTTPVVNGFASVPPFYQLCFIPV
Voltage-gated inwardly rectifying potassium channel KCNH2, sequence (Q12809 whole entry): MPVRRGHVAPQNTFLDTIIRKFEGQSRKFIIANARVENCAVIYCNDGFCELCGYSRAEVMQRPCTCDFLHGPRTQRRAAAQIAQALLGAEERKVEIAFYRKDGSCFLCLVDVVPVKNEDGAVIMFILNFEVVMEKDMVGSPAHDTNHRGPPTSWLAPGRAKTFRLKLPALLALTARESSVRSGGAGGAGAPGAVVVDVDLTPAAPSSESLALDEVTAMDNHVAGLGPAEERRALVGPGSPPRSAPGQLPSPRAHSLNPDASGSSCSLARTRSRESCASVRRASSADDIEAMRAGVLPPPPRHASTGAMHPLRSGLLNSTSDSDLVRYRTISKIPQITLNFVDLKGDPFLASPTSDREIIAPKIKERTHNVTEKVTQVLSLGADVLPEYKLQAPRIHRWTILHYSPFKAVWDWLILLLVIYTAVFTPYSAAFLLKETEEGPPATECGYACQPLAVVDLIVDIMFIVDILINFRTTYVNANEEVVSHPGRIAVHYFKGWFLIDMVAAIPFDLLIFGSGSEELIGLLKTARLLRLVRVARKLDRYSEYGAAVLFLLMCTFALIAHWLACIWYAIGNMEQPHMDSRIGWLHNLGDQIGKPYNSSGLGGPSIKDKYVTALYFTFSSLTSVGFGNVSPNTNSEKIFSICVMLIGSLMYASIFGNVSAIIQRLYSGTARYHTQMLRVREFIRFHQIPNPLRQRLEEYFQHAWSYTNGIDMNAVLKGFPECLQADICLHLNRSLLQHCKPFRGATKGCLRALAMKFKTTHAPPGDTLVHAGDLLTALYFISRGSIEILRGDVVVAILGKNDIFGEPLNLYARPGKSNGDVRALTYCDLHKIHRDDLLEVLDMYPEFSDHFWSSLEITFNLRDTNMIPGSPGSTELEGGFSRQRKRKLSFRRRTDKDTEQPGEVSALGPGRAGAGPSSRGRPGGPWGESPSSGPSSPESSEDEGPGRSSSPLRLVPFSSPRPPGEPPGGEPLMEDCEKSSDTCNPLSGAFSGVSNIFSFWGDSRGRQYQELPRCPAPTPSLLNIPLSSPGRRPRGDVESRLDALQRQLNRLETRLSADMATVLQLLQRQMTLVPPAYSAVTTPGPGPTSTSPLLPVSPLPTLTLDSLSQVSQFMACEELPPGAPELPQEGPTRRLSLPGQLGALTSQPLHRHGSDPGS
Cytochrome P450 2D6, sequence (P10635 whole entry): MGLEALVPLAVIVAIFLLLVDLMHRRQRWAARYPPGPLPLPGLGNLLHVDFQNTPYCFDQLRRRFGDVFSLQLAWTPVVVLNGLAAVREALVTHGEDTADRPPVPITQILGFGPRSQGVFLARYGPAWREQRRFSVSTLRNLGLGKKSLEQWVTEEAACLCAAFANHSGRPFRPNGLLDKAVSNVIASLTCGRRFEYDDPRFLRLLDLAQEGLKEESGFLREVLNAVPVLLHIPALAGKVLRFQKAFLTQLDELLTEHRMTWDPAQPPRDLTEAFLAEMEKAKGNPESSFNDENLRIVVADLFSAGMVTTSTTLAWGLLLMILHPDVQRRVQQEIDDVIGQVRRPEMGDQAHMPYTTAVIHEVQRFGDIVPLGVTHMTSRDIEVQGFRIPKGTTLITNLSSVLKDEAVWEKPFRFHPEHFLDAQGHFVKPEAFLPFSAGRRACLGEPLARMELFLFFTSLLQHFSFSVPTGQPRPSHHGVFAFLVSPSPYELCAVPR
Cytochrome P450 2C9, sequence (P11712 whole entry): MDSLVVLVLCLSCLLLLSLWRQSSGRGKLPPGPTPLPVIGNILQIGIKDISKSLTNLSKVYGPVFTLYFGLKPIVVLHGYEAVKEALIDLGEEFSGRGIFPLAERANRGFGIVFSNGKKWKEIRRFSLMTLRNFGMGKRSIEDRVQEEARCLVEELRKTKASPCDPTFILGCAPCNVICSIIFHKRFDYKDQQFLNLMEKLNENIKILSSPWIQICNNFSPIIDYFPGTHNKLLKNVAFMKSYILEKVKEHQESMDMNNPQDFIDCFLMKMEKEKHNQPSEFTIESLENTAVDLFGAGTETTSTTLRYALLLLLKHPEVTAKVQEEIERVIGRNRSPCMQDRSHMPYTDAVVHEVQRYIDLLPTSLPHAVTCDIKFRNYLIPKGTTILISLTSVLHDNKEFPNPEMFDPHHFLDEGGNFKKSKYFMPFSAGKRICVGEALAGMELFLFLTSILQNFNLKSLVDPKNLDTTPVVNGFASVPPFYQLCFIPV
RNA-directed RNA polymerase, sequence (O39930 entry or part of it P495A): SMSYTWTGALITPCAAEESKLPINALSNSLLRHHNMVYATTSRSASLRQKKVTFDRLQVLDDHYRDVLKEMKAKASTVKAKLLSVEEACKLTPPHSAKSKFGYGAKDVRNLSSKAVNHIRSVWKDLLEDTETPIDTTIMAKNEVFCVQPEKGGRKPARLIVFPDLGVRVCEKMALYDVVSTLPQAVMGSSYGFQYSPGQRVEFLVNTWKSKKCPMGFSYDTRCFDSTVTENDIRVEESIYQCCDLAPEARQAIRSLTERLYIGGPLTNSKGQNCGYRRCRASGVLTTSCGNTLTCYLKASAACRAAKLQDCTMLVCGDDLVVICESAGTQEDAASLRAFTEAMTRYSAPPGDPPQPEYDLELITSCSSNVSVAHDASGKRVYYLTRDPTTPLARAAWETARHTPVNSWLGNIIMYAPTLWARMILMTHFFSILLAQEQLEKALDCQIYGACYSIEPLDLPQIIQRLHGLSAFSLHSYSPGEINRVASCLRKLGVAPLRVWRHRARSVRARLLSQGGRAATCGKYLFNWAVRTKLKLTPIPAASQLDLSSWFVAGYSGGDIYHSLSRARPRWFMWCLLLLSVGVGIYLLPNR

Row | Structure (SMILES) | concentration at 4 h [1] | concentration at 4 h [2] | CC50 [3] | AUC(0-t) at 4 h [4] | concentration at 4 h [5] | Papp [6] | EC50 (Hepatitis C virus [7]) | concentration at 4 h [8] | Stability (Liver microsome [9]) | solubility [10] | Stability (Liver microsome [11]) | EC50 [12] | clearance [13] | EC50 (Hepatitis C virus [14]) | EC50 (Hepatitis C virus [15]) | AUC(0-t) at 4 h [16] | EC50 (Cytochrome P450 2C9) | EC50 (Cytochrome P450 2C19) | EC50 (Cytochrome P450 1A2) | EC50 [18] | other results
1 | COc1ccc2c(c1)C1CC1(C(=O)N1CC(C)(O)C1)Cn1c-2c(C2CCCCC2)c2ccc(C(=O)NS(=O)(=O)N(C)C)cc21 (racemic) | 9600 nM | 29 nM | > 10000 nM | 9.8 µM·h | 3700 nM | 30 ×10⁻⁶ cm/s | 14 nM | 25 nM | 85% | 93 µg/mL (≈ 150 µM) | 81% | > 50000 nM | 14 mL/min/kg | 20 nM | 56 nM | 0.139 µM·h | – | – | – | – | –
2 | COC[C@H]1CN(C(=O)[C@]23C[C@H]2c2cc(OC)ccc2-c2c(C4CCCCC4)c4ccc(C(=O)NS(=O)(=O)N(C)C)cc4n2C3)CCO1 | – | – | > 10000 nM | – | – | – | 6 nM | – | – | – | – | > 50000 nM | – | 12 nM | 36 nM | – | – | – | – | – | Emax (PXR (NR1I2)): 12%; Ratio EC50 (Hepatitis C virus [17]): 3
3 | COc1ccc2c(c1)C1CC1(C(=O)N1C[C@@H](C)N(C(C)=O)[C@@H](C)C1)Cn1c-2c(C2CCCCC2)c2ccc(C(=O)NS(=O)(=O)N(C)C)cc21 (mixture of isomers) | 126 nM | 9 nM | > 10000 nM | 3.84 µM·h | 345 nM | 48 ×10⁻⁶ cm/s | 24 nM | 14 nM | 93% | 17 µg/mL (≈ 24.6 µM) | 100% | > 50000 nM | 37 mL/min/kg | 38 nM | 35 nM | 0.277 µM·h | – | – | – | – | –
4 | COc1ccc2c(c1)C1CC1(C(=O)N1C3CC1CN(Cc1ccccc1)C3)Cn1c-2c(C2CCCCC2)c2ccc(C(=O)NS(=O)(=O)N(C)C)cc21 (racemic) | – | – | > 10000 nM | – | – | 56 ×10⁻⁶ cm/s | 35 nM | – | 100% | – | 80% | 2000 nM | – | 162 nM | – | – | 7000 nM | 31000 nM | > 13000 nM | > 80000 nM | EC50 (HepG2): 22000 nM; EC50 (Cytochrome P450 2D6): > 40000 nM; Emax (PXR (NR1I2)): 22%; EC50 (Cytochrome P450 3A4): 13000 nM
5 | COc1ccc2c(c1)C1CC1(C(=O)N1C[C@@H](C)N(C)[C@@H](C)C1)Cn1c-2c(C2CCCCC2)c2ccc(C(=O)NS(=O)(=O)N(C)C)cc21 (mixture of isomers) | 1860 nM | 67 nM | 8000 nM | 4.29 µM·h | 9700 nM | 48 ×10⁻⁶ cm/s | 14 nM | 158 nM | 99% | 34 µg/mL (≈ 51.4 µM) | 88% | > 50000 nM | 29 mL/min/kg | 17 nM | 46 nM | 0.516 µM·h | – | – | – | – | –
6 | COc1ccc2c(c1)C1CC1(C(=O)N1CCOCC1)Cn1c-2c(C2CCCCC2)c2ccc(C(=O)NS(=O)(=O)N(C)C)cc21 (racemic) | – | – | > 10000 nM | – | – | – | 54 nM | – | – | – | – | – | – | 61 nM | 300 nM | – | – | – | – | – | EC50 [19]: 385 nM; IC50 [20]: 22 nM
7 | CCN1CC2CC(C1)N2C(=O)[C@]12C[C@H]1c1cc(OC)ccc1-c1c(C3CCCCC3)c3ccc(C(=O)NS(=O)(=O)N(C)C)cc3n1C2 | – | – | – | – | – | 27 ×10⁻⁶ cm/s | 4 nM | – | – | 450 µg/mL (≈ 682 µM) | – | > 50000 nM | – | 4 nM | – | – | > 40000 nM | > 40000 nM | > 40000 nM | 6000 nM | EC50 [21]: 29000 nM; EC50 (HepG2): 19000 nM; EC50 (Cytochrome P450 2D6): > 40000 nM; EC50 (Cytochrome P450 3A4): 9000 nM
8 | O=C(O)c1ccc2c(C3CCCCC3)c3n(c2c1)C[C@@]1(C(=O)N2CCOCC2)C[C@H]1c1ccccc1-3 | – | – | > 10000 nM | – | – | – | 41 nM | – | – | – | – | – | – | 51 nM | 484 nM | – | – | – | – | – | EC50 [19]: 380 nM; IC50 [20]: 22 nM
9 | CN(C)S(=O)(=O)NC(=O)c1ccc2c(C3CCCCC3)c3n(c2c1)CC1(C(=O)N2CCOCC2)CC1c1ccccc1-3 (racemic) | – | – | > 10000 nM | – | – | – | 44 nM | – | – | – | – | – | – | 82 nM | 821 nM | – | – | – | – | – | EC50 [19]: 165 nM; IC50 [20]: 94 nM
10 | COc1ccc2c(c1)C1CC1(C(=O)N1C3CNCC1C3)Cn1c-2c(C2CCCCC2)c2ccc(C(=O)NS(=O)(=O)N(C)C)cc21 (racemic) | – | – | > 10000 nM | – | – | 6 ×10⁻⁶ cm/s | 23 nM | – | 100% | – | 97% | > 50000 nM | – | 80 nM | 94 nM | – | > 40000 nM | > 40000 nM | > 40000 nM | 32000 nM | EC50 (HepG2): > 50000 nM; EC50 (Cytochrome P450 2D6): > 40000 nM; EC50 (Cytochrome P450 3A4): > 40000 nM
